Test results taken from paper PMC2908602, “Placental transfer of the polybrominated diphenyl ethers BDE-47, BDE-99 and BDE-209 in a human placenta perfusion system: an experimental study” (Environmental Health, 2010).
Like-named read-outs stand apart in the source and are kept apart here.

Tests used:
human placenta [1] = settings: cited from earlier work
human placenta [2] = system: human placenta
Experimental: The study was approved by the regional Ethics Committee (KF 01-145/03 + KF(11) 260063) and the Data Protection Agency. All mothers gave informed written consent. […] The placentas were injected with a Krebs Ringer buffer containing heparin (5000 IU/ml, 5 ml/l medium) to prevent any remaining blood in fetal vessels from coagulating. The perfusions were performed in a dual perfusion system as previously described. […] Next, the lobule containing the perfused cotyledon was cut from the placenta (9 cm diameter) and placed in the perfusion chamber. The maternal circulation was connected by blunt cannulation of the intervillous space surrounding the perfused cotyledon. The perfusion media (100 mL each in fetal and maternal reservoirs) were circulated by peristaltic pumps and consisted of Krebs Ringer Buffer containing heparin (5000 IU/mL, Copenhagen University Hospital Pharmacy, 5 mL/L medium), glucose (0.6 g/100 mL), Pen-Strep (1% Substrate department standard solution, Panum Institute Copenhagen) and physiological levels of Human Serum Albumin (20% solution, CSL Behring Gmbh, dialysed in Krebs Ringer Buffer, maternal reservoir: 30 g/L; fetal reservoir: 40 g/L) and gassed with 95% O2/5% CO2 and 95% N2/5% CO2 in the maternal and fetal reservoirs, respectively. […] After at least 30 minutes of pre-perfusion to stabilise temperature and oxygen content, BDE-47, BDE-99 and BDE-209 (Cambridge Isotopes Laboratories, 1 μg/mL in ethanol, 100 μL added; final concentration of 1 ng/mL) and the positive control substance antipyrine dissolved in H2O (Aldrich-Chemie, Germany; final concentration of 100 μg/mL) were added to the maternal reservoir. The applied concentrations of PBDEs were a compromise between achieving final levels relatively close to in vivo levels and having a detection frequency close to 100%. […] The perfusions were run for four hours, and 6 mL were sampled at t = 0 from the maternal circulation and from both reservoirs before addition of the compounds and at 2, 30, 60, 130, 190 and 240 minutes after addition of the compounds. The sampled volume was not replaced.
The pH (7.2-7.4), glucose and lactate concentrations (glucose > 6 mM), and O2 tension in the maternal perfusion medium (30-35 kPa), in the fetal perfusion medium (10-15 kPa), and in the fetal venous outflow (15-20 kPa) were measured every 30 minutes using an ABL5 blood gas analyser (Radiometer, Denmark). Adjustments were made using 1 M HCl or 1 M NaOH to adjust pH, glucose solution (2,61 g/L) and increasing or decreasing the rate of 95% N2/5% CO2 gassing in the fetal perfusate or 95% O2/5% CO2 gassing in the maternal perfusate to adjust pO2 after each measurement.
In addition to the perfusion samples, the three PBDE congeners were analysed in umbilical cord blood and in the placental tissue before and after the perfusion. Samples of umbilical cord blood were taken if possible and processed to collect plasma. Subsamples of the placental tissue were taken before perfusion as well as from the cotyledon and the surrounding tissue after perfusion. Prior to placenta perfusions, adsorption tests had been performed: The chambers and tubes were perfused without placental tissue to investigate loss of substance during the perfusion, for instance through adsorption to the perfusion system.

[3] = set-up: species or system human; settings: in vivo
Experimental: Total lipid content in placental tissue was determined according to Smedes (1999), while enzymatic lipid determination of triglyceride and cholesterol was performed on the plasma samples and total lipid was calculated as described by Covaci et al (2006).

[4] = in vivo; cited from earlier work
[5] = set-up: method as in PMID 11999784; settings: cited from earlier work

Compound: O=C(O)CNCP(=O)(O)O [glyphosate]
- indicative permeability coefficient (IPC) (human placenta [1]; perfused in the same human placenta model): 0.11 h⁻¹

Compound: Cn1c(=O)c2c(ncn2C)n(C)c1=O [caffeine]
- indicative permeability coefficient (IPC) (human placenta [1]; not told): 1.03 h⁻¹

Compound: c1ccc2c(c1)cc1ccc3cccc4ccc2c1c34 [benzo(a)pyrene]
- indicative permeability coefficient (IPC) (human placenta [1]; human placenta perfusion): 0.08 h⁻¹

Compound: Cc1cc(=O)n(-c2ccccc2)n1C [antipyrine, reference compound]
- indicative permeability coefficient (IPC) (human placenta [1]): 0.94 h⁻¹
- FM-ratio at 190 min (human placenta [2]; 190 min, 100 µg/mL): 1.04

Compound: Brc1c(Br)c(Br)c(Oc2c(Br)c(Br)c(Br)c(Br)c2Br)c(Br)c1Br [BDE-209, decabromo diphenyl ether]
- Non-perfused placental tissue level [3]: < LOQ
- Umbilical cord plasma level [3]: < LOQ
- median level in placental tissue [4]: 1.14 ng/g lw
- observed blood levels, Denmark [4]: ~ 0.014 ng/ml
- observed blood levels, elsewhere [4]: 0.009 to 0.15 ng/mL
- logKow [5]: ≥ 10
- Cotyledon (perfused tissue) level (human placenta [2]; 4 h, 1 ng/mL): 107.8 (64.2-159.5) ng/g lw
- Surrounding placental tissue level (human placenta [2]; 4 h, 1 ng/mL): 22.2 (16.3-31.8) ng/g lw
- concentration in perfused cotyledon relative to background (human placenta [2]; 4 h, 1 ng/mL): 20 times
- concentration in surrounding tissue relative to background (human placenta [2]; 4 h, 1 ng/mL): 100 times
- mass balance: amount unaccounted for (system adsorption) (human placenta [2]; 4 h, 1 ng/mL): -8%
- mass balance: fraction of added amount in cotyledon (human placenta [2]; 4 h, 1 ng/mL): 24%
- mass balance: fraction of added amount in fetal circulation (human placenta [2]; 4 h, 1 ng/mL): 0%
- mass balance: fraction of added amount in maternal circulation (human placenta [2]; 4 h, 1 ng/mL): 27%
- mass balance: fraction of added amount in surrounding placental tissue (human placenta [2]; 4 h, 1 ng/mL): 19%
- mass balance: fraction of added amount removed by sampling (human placenta [2]; 4 h, 1 ng/mL): 38%
